In ChEMBL document CHEMBL1938312, “Design and combinatorial synthesis of a novel kinase-focused library using click chemistry-based fragment assembly” (Bioorg Med Chem Lett, 2012) one finds inhibition and IC50 data, which are given here for four compounds.

The target in experiment [1] is Glycogen synthase kinase-3 beta (Homo sapiens, UniProt P49841). Description: Inhibition of GSK3-beta at 10 uM by colorimetric analysis.
For experiment [2], the target named is Proto-oncogene tyrosine-protein kinase Src (Homo sapiens) (UniProt P12931). Description: Inhibition of SRC at 10 uM by colorimetric analysis.
Experiment [3] deals with Receptor-type tyrosine-protein kinase FLT3 (Homo sapiens) (UniProt P36888). Description: Inhibition of FLT3 at 10 uM by colorimetric analysis.
For experiment [4], the target named is Death-associated protein kinase 1 (Homo sapiens) (UniProt P53355). Description: Inhibition of DAPK1 at 10 uM by colorimetric analysis.
Experiment [5] deals with T1, Receptor-type tyrosine-protein kinase FLT3 (Homo sapiens, UniProt P36888).
T1 sequence (P36888 whole entry): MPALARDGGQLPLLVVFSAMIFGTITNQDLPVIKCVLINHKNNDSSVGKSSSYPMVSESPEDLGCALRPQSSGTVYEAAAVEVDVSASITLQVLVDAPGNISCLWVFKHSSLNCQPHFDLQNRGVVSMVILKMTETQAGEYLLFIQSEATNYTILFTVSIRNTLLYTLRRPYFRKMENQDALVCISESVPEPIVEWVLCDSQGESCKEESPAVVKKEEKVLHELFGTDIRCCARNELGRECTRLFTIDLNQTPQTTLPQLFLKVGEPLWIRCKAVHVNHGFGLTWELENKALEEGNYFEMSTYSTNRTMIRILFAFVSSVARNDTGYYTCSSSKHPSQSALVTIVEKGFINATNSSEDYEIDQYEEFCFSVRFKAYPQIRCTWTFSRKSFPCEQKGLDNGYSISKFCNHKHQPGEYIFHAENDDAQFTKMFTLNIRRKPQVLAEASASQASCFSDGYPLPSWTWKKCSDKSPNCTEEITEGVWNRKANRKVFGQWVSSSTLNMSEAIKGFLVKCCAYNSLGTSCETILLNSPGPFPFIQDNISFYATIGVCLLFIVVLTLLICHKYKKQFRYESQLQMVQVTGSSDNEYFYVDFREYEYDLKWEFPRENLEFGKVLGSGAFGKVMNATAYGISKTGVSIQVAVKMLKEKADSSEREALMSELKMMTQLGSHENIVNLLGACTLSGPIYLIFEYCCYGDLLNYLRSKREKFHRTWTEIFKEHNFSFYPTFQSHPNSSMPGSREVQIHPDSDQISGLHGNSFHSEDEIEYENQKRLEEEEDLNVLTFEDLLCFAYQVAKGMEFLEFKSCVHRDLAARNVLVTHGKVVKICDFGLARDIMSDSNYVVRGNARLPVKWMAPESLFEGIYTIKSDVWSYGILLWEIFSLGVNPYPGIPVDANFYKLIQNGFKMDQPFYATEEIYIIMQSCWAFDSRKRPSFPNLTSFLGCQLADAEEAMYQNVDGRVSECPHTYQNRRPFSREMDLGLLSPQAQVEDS
Description: Inhibition of FLT3 by colorimetric analysis.

Experiment [6] concerns the target T2, Serine/threonine-protein kinase Sgk1 (Homo sapiens) (UniProt O00141).
T2 sequence (whole entry): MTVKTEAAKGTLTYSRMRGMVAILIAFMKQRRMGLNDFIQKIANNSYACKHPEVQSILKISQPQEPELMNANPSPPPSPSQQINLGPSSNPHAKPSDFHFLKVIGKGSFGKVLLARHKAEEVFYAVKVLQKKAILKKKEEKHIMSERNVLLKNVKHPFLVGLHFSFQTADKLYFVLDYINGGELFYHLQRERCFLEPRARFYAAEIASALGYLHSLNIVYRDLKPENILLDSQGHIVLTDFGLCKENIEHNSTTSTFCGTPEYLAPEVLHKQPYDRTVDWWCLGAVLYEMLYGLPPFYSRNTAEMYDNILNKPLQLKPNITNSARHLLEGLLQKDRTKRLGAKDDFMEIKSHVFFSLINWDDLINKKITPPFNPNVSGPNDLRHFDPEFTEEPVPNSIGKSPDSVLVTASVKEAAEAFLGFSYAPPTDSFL
Description: Inhibition of SGK at 10 uM by colorimetric analysis.

Experiment [7] concerns the target T3, Serine/threonine-protein kinase Nek2 (Homo sapiens) (UniProt P51955).
T3 sequence (whole entry): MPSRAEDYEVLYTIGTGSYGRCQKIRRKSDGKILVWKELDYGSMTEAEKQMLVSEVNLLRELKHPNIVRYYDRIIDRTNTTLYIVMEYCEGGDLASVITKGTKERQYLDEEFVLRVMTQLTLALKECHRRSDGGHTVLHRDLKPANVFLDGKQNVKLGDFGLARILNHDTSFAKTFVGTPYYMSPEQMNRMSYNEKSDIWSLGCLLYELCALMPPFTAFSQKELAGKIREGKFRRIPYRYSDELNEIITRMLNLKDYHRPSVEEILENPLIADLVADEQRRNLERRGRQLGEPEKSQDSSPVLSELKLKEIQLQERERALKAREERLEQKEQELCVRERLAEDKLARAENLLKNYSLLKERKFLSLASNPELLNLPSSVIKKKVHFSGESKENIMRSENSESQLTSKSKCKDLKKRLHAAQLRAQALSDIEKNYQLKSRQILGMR
Briefly: Inhibition of NEK2 at 10 uM by colorimetric analysis.

Experiment [8] has as its target T4, Serine/threonine-protein kinase 4 (Homo sapiens) (UniProt Q13043).
T4 sequence (whole entry): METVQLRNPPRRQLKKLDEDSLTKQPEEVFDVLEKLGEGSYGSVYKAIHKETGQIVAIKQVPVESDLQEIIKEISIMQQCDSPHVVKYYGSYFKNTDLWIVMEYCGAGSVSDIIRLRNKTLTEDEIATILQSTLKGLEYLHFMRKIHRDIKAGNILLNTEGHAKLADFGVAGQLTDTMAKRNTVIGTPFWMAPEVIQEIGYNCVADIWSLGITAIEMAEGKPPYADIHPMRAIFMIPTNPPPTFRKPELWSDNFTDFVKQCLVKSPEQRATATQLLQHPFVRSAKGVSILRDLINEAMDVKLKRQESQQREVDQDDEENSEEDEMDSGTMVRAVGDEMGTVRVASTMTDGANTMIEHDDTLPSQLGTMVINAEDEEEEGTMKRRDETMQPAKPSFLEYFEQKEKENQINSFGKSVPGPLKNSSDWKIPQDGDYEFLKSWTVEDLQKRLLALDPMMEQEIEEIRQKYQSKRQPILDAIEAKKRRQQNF
Briefly: Inhibition of MST1 at 10 uM by colorimetric analysis.

Experiment [9] deals with High affinity nerve growth factor receptor (Homo sapiens) (UniProt P04629). Briefly: Inhibition of TRKA at 10 uM by colorimetric analysis.

Molecules are shown by their SMILES. Active and inactive are the calls of the source. The calls are words filed in the database; no cut-off is given here.

Chain of High affinity nerve growth factor receptor (Homo sapiens) (P04629 33-796 limits assumed): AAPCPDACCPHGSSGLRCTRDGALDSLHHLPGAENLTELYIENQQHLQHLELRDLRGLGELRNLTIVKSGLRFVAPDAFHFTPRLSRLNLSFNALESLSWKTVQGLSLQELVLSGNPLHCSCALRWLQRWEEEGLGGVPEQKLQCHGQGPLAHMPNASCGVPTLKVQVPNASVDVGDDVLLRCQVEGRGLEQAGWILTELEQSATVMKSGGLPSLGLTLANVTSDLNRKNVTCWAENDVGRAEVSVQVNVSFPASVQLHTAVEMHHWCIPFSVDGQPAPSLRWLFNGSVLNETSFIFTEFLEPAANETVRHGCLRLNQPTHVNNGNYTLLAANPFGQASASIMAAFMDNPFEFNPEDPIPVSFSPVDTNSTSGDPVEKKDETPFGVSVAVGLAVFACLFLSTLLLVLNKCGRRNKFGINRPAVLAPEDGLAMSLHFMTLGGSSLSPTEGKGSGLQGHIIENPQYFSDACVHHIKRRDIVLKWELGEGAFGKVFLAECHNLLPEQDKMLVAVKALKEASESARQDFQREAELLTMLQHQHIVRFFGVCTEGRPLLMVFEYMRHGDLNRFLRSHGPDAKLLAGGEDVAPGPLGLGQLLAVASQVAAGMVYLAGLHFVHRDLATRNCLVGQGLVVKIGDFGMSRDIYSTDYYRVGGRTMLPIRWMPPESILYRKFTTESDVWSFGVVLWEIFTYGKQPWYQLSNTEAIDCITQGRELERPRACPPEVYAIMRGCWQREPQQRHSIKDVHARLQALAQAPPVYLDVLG
Chain of Death-associated protein kinase 1 (Homo sapiens) (P53355 whole entry, looked up): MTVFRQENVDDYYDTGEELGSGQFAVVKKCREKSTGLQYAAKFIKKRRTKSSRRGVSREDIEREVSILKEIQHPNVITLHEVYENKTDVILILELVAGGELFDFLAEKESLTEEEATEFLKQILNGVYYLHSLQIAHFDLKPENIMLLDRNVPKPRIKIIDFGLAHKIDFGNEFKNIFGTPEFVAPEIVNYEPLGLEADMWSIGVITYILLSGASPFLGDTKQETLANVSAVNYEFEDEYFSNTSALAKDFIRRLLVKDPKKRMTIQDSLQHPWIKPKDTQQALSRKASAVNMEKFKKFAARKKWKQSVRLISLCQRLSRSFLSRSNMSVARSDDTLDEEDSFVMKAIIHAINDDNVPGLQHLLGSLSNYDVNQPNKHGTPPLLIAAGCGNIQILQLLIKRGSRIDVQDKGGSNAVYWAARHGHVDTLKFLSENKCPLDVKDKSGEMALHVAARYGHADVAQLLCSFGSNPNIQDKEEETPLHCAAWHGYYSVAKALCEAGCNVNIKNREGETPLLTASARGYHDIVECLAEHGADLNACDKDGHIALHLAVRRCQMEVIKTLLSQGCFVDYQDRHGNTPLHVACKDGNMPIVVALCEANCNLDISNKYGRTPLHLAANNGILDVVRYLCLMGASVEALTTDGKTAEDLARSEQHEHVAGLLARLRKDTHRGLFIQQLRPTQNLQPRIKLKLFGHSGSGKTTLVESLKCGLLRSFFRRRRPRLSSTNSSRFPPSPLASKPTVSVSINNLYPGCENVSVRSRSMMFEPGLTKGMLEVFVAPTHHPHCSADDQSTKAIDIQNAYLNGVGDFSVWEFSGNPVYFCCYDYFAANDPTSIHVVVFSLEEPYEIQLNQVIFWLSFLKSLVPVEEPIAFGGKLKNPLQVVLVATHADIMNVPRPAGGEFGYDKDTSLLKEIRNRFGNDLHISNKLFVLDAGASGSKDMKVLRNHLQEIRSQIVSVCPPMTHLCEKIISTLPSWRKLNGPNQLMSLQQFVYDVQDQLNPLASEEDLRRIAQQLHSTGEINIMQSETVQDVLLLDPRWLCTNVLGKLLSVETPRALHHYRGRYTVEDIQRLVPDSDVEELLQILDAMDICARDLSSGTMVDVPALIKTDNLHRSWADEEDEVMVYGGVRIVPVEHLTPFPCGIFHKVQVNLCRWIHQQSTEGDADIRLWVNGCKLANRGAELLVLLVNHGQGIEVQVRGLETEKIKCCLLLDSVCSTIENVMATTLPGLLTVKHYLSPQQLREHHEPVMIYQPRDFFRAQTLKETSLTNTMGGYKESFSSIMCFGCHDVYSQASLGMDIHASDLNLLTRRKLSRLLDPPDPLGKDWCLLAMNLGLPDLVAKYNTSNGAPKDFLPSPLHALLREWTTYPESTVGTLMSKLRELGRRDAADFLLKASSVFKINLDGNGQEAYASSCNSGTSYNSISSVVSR
Chain of Glycogen synthase kinase-3 beta (P49841 whole entry, looked up): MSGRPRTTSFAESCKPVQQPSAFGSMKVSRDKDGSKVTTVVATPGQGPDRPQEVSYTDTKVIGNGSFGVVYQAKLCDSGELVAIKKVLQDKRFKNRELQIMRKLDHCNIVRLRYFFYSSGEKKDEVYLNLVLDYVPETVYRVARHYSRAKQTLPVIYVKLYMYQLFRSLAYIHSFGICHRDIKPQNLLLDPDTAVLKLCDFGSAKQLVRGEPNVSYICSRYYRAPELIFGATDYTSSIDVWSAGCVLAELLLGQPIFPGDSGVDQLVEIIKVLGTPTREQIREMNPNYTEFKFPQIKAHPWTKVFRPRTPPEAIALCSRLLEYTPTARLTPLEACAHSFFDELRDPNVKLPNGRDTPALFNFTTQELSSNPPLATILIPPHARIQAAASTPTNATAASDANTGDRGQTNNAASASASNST
Chain of Proto-oncogene tyrosine-protein kinase Src (Homo sapiens) (P12931 2-536 limits assumed): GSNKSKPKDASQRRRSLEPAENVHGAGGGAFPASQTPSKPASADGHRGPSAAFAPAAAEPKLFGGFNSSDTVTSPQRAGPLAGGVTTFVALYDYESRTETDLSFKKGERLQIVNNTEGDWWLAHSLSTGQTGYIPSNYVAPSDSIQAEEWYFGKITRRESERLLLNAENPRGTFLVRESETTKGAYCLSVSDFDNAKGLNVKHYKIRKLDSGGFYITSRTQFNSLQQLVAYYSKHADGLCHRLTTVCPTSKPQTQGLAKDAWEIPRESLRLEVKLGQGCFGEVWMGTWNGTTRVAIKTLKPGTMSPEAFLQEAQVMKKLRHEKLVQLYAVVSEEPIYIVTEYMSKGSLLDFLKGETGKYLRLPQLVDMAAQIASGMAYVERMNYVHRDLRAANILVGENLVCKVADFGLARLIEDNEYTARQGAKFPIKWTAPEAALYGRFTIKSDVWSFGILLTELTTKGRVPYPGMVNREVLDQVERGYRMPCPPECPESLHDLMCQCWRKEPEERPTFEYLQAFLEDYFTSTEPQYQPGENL

Take `Clc1ccc(-n2cc(-c3ccncc3)nn2)cc1`: the inhibition result in experiment [1], in experiment [3], in experiment [4], in [6], in [7] and in [8] was “Active” throughout. Moreover, the inhibition result in [2] and in experiment [9] was “inactive” throughout. For the same compound, the 50% inhibitory concentration (IC50) (in general, the midpoint of a concentration-inhibition curve) in experiment [5] came out at 5.8 µM.

Turning to `Clc1cccc(-n2nncc2-c2ccncc2)c1`, the inhibition result in experiment [1], in [3], in experiment [4], in experiment [6], in experiment [7] and in experiment [8] was “Active” in each case. The inhibition result in experiment [2] and in experiment [9] was “inactive” throughout. The concentration for half-maximal inhibition (IC50) in experiment [5] turned out to be 4.4 µM.

As for `Clc1ccc(-n2nncc2-c2ccncc2)cc1`, the inhibition entry in [1], in [3], in experiment [4], in [6], in experiment [7] and in experiment [8] was “Active” each time. For the same compound, the inhibition result in [2] and in experiment [9] was “inactive” in each case. The IC50 in experiment [5] was 1.7 µM.

Take `Clc1cccc(-n2cc(-c3ccncc3)nn2)c1`: the inhibition entry in [1], in experiment [3], in [4], in [6], in [7] and in experiment [8] was “Active” throughout. Besides, the inhibition entry in experiment [2] and in [9] was “inactive” each time. Besides, the IC50 in experiment [5] stood at 10.5 µM.
